Values quoted from earlier work in patent publication US9682147B2, “Self-preserved oil dispersions comprising boric acid” (SANTEN SAS, priority 2012, dated 2017).
Read-outs that look alike come from different tables or passages of the source.

What was measured:
[1] = solution comprising 1.2% w/w of borate
corneal cells = conditions: boric acid used in cleaning contact lenses solutions
[2] = tested on: corneal and epithelial cells

| Compound | Antimicrobial activity [1] | Criteria for antimicrobial effectiveness given by USP [1] | Corneal cytotoxicity (corneal cells) | Toxicity to corneal and epithelial cells ([2]; 0.5% to 1% boric acid) | Toxicity to corneal and epithelial cells ([2]; concentration of 0.1% boric acid) |
| --- | --- | --- | --- | --- | --- |
| borate | some antimicrobial activity | not sufficient to meet the criteria | – | – | – |
| OB(O)O [boric acid] | – | – | strong corneal cytotoxicity | toxic | safe |
